From US20020183333A1, “Compositions and methods for chemotherapy having reduced nephrotoxicity” (priority 2000, published 2002)
Entries after “also recorded” stand apart in the source; their conditions may differ.

Key:
[1] = test system: LLC-WRC 256 cells; assay: Antineoplastic efficacy of CP by trypan blue exclusion assay (percentage of non-viable cells); assay type: cell-based, rat; details: for effect of the inhibitor on the antineoplastic efficacy of cisplatin: 30 min preincubation with DFO 1 mM, DMSO 5 mM, CM 2 mM or PB 1 mM, then cisplatin 500 μg/ml for 5 hours, FIGS. 2 and 3
Procedure: LLC-WRC 256 cells (Walker rat carcinoma cells) purchased from American Type Culture Collection (ATCC, Rockville, Maryland) were maintained in 75 cm^2 tissue culture flasks containing Medium 199 supplemented with 5% fetal bovine serum (Gibco, Gaithersburg, Md.) in a humidified atmosphere of 95% air-5% CO2 at 37° C. For the experimental study, the cell monolayers were subcultured with 0.25% trypsin into a 12-well tissue culture plate until confluence. The antineoplastic efficacy of CP in LLC-WRC 256 cells was measured by the cell viability determined by the trypan blue exclusion assay. Cells failing to exclude the dye were considered non-viable, and data expressed as the percentage of non-viable cells. Antineoplastic efficacy of CP was examined as previously described (Rawlings and Roberts, 1986, Mutation Research 166(2): 157-168.). The cells were incubated with various concentrations of CP (0-600 μg/ml) at different time points (0-6 h) in HBSS at 37° C. At the end of the incubation, the cell viability was determined. Confluent LLC-WRC 256 cell monolayer was incubated with antineoplastic dose of CP for a period of time necessary to induce consistent antineoplastic activity (CP 500 μg/ml in HBSS for 5 hours at 37° C., based on the. initial observation). The cell monolayers were preincubated with iron chelator, deferoxamine (1 mM) or hydroxyl radical scavenger, dimethyl sulfoxide (5 mM) at 37° C. for 30 minutes, washed twice with HBSS and then followed by the addition of CP. LLC-WRC 256 cell monolayers were preincubated with cimetidine (2 mM) or piperonyl butoxide (1 mM) at 37° C. for 30 min, washed with HBSS twice and then followed by the addition of CP (500 μg/ml for 5 hours at 37° C.)

[2] = test system: LLC-WRC 256 cells; assay: Catalytic iron release into the medium, bleomycin assay; assay type: cell-based, rat; details: CP 500 μg/ml for 2.5 hours, n=6; control 2.44±0.59
Procedure: Confluent […] 256 cells were washed twice with Chelex-treated HBSS and then incubated with a cytotoxic, dose of CP in Chelex-treated HBSS for a period of time before substantial cell killing occurred (500 μg/ml for 2.5 hours at 37° C., based on the time course study). The catalytic iron released into the medium was measured by the bleomycin assay, as described below. Iron capable of catalyzing free radical reactions (catalytic iron) was measured by the bleomycin assay as utilized in our previous studies (Baliga et al. , 1998, Kidney Int. 53:394-401, and Baliga et al., 1998, Kidney Int. 54:1562-1569). All reagents except for the experimental samples were made up in Chelex-treated pyrogen-free water and shaken with Chelex 100 to remove as much contaminating iron as possible. The reaction mixture contained in order: 0.5 ml of calf thymus DNA (1 mg/ml), 0.05 ml of bleomycin sulfate (1 mg/ml), 0.1 ml MgCl2 (50 mM), 0.1 ml of sample, 0.1 ml of ascorbic acid (8 mM), and either HCl (50 mM) or NaOH (50 mM) to adjust pH in the range of 7.2-7.8. […] The reaction mixture was then heated at 100° C. for 15 minutes, cooled and the resulting chromogen measured using spectrophotometer at A 532 nm. The amount of bleomycin detectable iron in the test sample was calculated from the standard curve and the results expressed as nmol/mg cellular protein recovered from the cell monolayer.

[3] = test system: LLC-WRC 256 cells; assay: Hydroxyl radical formation, deoxyribose degradation method; assay type: cell-based, rat; details: CP 500 μg/ml for 2.5 hours, n=4; control 0.45±0.03
Procedure: Confluent cell monolayers were washed with HBSS and then incubated with cytotoxic dose of CP in HBSS at 37° C. for a period of time before substantial cell killing occurred (500 μg/ml for 2.5 hours). 2-deoxy-D-ribose at a final concentration of 3 mM was added to the medium just prior to the incubation. At the end of the incubation, the medium was collected for the measurement of hydroxyl radical formation by deoxyribose degradation method as described by Halliwell et al., 1988, Meth. Biochem. Anal 33:59-90. In brief, 0.5 ml of the incubation medium was mixed with 0.5 ml of 1% (w/v). 5 thiobarbituric acid in 50 mM NaOH and 0.5 ml of 2.8% (w/v) aqueous trichloroacetic acid, heated at 100° C. for 15 min, cooled and followed by extraction with 1.5ml n-butanol. The absorbance at 532 nm of the resulting supernatant was then taken, and the hydroxyl radical level was calculated by using the extinction coefficient of 156 mM^−1 cm^−1.

[4] = test system: cardiotoxicity induced by doxorubicin; details: women with breast cancer; cited from earlier work

For `CN/C(=N/CCSCc1nc[nH]c1C)NC#N` [CM, cimetidine], which “effect of the inhibitor on the antineoplastic efficacy of cisplatin” value [1] is on record?
The value was “does not reduce the antineoplastic efficacy of CP; also recorded: do not effect the antineoplastic activity of CP”.

Which “time of exposure that results in significant cell death” value ([1]; CP 500 μg/ml, time course 0-6 hours, FIG. 1B) does the source give for `N.N.[Cl][Pt][Cl]` [CP, cisplatin] here?
Its value is 5 h.

And the “low dose at which significant cell death occurs” value ([1]; LLC-WRC 256 cells, 4 hour incubation, CP 0-600 μg/ml, FIG. 1A)?
The value was 50 µg/mL.

And the “CP dose required to produce submaximal injury” value ([1]; LLC-WRC 256 cells, concentration dependent effects, FIG. 1A)?
Its value is 500 µg/mL.

What about the catalytic iron release [2] of the same compound?
Its catalytic iron release is 2.78±0.41 nmol/mg protein.

And the “generation of hydroxyl radical” value [3]?
Its value is 0.41±0.03 nmol/mg protein.

With `C[S+](C)[O-]` [DMSO, dimethyl sulfoxide] as the compound, how does the “effect of the inhibitor on the antineoplastic efficacy of cisplatin” value [1] read?
Its value is “CP still functions as an antineoplastic compound; also recorded: does not reduce the antineoplastic efficacy of CP”.

Which “effect on frequency and severity of doxorubicin-induced cardiotoxicity” value [4] does the source give for `C[C@@H](CN1CC(=O)NC(=O)C1)N1CC(=O)NC(=O)C1` [dexrazoxane] here?
The value was “decrease the frequency and severity of cardiotoxicity”.
